Measured values as given in patent US12630600B2 (MEDIMMUNE LIMITED, priority 2022, dated 2026).
Starred links: 1 amine or outer side, 2 acyl side, 3 side chain; linkers in the order of their positions; H or OH if unused. Non-standard residues stand in square brackets, D forms with d. Residues, ends and D or L forms follow the SMILES beside them. Groups on a side chain read outwards from the residue. *: point of attachment. C20 diacid = O=C(O)CCCCCCCCCCCCCCCCCCC(=O)*; C18 diacid = O=C(O)CCCCCCCCCCCCCCCCC(=O)*; γGlu = O=C(O)[C@H](CCC(=O)[*:2])N[*:1]; αMeF = C[C@](N)(Cc1ccccc1)C(=O)O; AEEA = NCCOCCOCC(=O)O; Aib = CC(C)(N)C(=O)O

Target: T1, human GLP-1 receptor (hGLP-1R) (Homo sapiens, UniProt P43220)
T1 construct: expressed in transfected cells; host or cells: CHO
T1 sequence (P43220 24-463): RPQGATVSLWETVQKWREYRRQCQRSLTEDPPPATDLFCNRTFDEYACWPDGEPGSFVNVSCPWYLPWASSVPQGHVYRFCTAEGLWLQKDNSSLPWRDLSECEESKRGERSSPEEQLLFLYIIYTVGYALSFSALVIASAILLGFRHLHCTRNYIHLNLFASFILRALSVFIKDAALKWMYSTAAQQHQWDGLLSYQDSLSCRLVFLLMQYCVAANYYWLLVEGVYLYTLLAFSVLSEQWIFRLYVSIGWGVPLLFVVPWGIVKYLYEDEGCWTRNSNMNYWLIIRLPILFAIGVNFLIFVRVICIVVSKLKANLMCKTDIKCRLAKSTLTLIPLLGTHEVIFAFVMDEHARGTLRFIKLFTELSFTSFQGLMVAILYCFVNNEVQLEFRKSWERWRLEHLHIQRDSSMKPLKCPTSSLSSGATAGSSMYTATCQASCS
Assay: cAMP production (HTRF) in CHO cells expressing human GLP-1 receptor
Assay type: cell-based
Details: % GLP-1R activity relative to GLP-1 / % GlucR activity relative to glucagon
Description: Cells were re-suspended in assay buffer at a batch-dependent optimized concentration (typically hGLP-1R cells at 1×10^5 cells/mL, hGCGR cells at 2×10^5 cells/mL).
Cells were added to the assay plate using a multidrop dispenser and incubated at room temperature for 30 minutes before measuring the cAMP level using a cAMP dynamic 2 homogeneous time resolved Fluorescence (HTRF) kit (Cisbio Bioassays #62AM4PEJ) following the two-step protocol as per manufacturer's recommendations. In brief, anti-cAMP cryptate (donor fluorophore) and cAMP-d2 (acceptor fluorophore) were made up separately by diluting each 1 in 20 in conjugate and lysis buffer provided in the kit. Anti-cAMP cryptate was added to all wells of the assay plate, followed by cAMP-d2 added to all wells except non-specific binding (NSB) wells (to which conjugate and lysis buffer was added).
Data was transformed to % Delta F as described in the manufacturer's guidelines and analyzed by 4-parameter logistic fit to determine EC50 values.

Compound | % Relative Potency Ratio (Table 8) | other results
CC[C@H](C)[C@H](NC(=O)[C@H](Cc1c[nH]c2ccccc12)NC(=O)[C@H](CCCCNC(=O)CC[C@H](NC(=O)CCCCCCCCCCCCCCCCC(=O)O)C(=O)O)NC(=O)[C@@H](NC(=O)[C@H](Cc1ccccc1)NC(=O)[C@H](CC(=O)O)NC(=O)[C@H](CCC(N)=O)NC(=O)[C@H](C)NC(=O)[C@H](C)NC(=O)[C@H](CCC(N)=O)NC(=O)[C@H](CO)NC(=O)[C@H](CC(=O)O)NC(=O)[C@H](CC(C)C)NC(=O)[C@](C)(Cc1ccccc1)NC(=O)[C@H](CCCCN)NC(=O)[C@H](CO)NC(=O)[C@@H](NC(=O)[C@H](CC(=O)O)NC(=O)[C@H](CO)NC(=O)[C@@H](NC(=O)[C@](C)(Cc1ccccc1)NC(=O)[C@H](CO)NC(=O)CNC(=O)[C@H](Cc1c[nH]cn1)NC(=O)C(C)(C)NC(=O)[C@@H](N)Cc1c[nH]cn1)[C@@H](C)O)C(C)C)C(C)C)C(=O)N[C@@H](C)C(=O)N[C@@H](CC(N)=O)C(=O)N[C@H](C(N)=O)[C@@H](C)O [Peptide 351] (H-H[Aib]HGS[αMeF]TSDVSK[αMeF]LDSQAAQDFVK([γGlu-C18 diacid])WIANT-NH2) | 0.7 | 
CC[C@H](C)[C@H](NC(=O)[C@H](Cc1c[nH]c2ccccc12)NC(=O)[C@H](CCCCNC(=O)CC[C@H](NC(=O)CCCCCCCCCCCCCCCCCCC(=O)O)C(=O)O)NC(=O)[C@@H](NC(=O)[C@H](Cc1ccccc1)NC(=O)[C@H](CC(=O)O)NC(=O)[C@H](CCC(N)=O)NC(=O)[C@H](C)NC(=O)[C@H](C)NC(=O)[C@H](CCC(N)=O)NC(=O)[C@H](CO)NC(=O)[C@H](CC(=O)O)NC(=O)[C@H](CC(C)C)NC(=O)[C@](C)(Cc1ccccc1)NC(=O)[C@H](CCCCN)NC(=O)[C@H](CO)NC(=O)[C@@H](NC(=O)[C@H](CC(=O)O)NC(=O)[C@H](CO)NC(=O)[C@@H](NC(=O)[C@](C)(Cc1ccccc1)NC(=O)[C@H](CO)NC(=O)CNC(=O)[C@H](Cc1c[nH]cn1)NC(=O)C(C)(C)NC(=O)[C@@H](N)Cc1c[nH]cn1)[C@@H](C)O)C(C)C)C(C)C)C(=O)N[C@@H](C)C(=O)N[C@@H](CC(N)=O)C(=O)N[C@H](C(N)=O)[C@@H](C)O [Peptide 354] | 1.6 | 
CC[C@H](C)[C@H](NC(=O)[C@H](Cc1c[nH]c2ccccc12)NC(=O)[C@H](CCCCNC(=O)COCCOCCNC(=O)COCCOCCNC(=O)CC[C@H](NC(=O)CCCCCCCCCCCCCCCCC(=O)O)C(=O)O)NC(=O)[C@@H](NC(=O)[C@H](Cc1ccccc1)NC(=O)[C@H](CC(=O)O)NC(=O)[C@H](CCC(N)=O)NC(=O)[C@H](C)NC(=O)[C@H](C)NC(=O)[C@H](CCC(N)=O)NC(=O)[C@H](CO)NC(=O)[C@H](CC(=O)O)NC(=O)[C@H](CC(C)C)NC(=O)[C@](C)(Cc1ccccc1)NC(=O)[C@H](CCCCN)NC(=O)[C@H](CO)NC(=O)[C@@H](NC(=O)[C@H](CC(=O)O)NC(=O)[C@H](CO)NC(=O)[C@@H](NC(=O)[C@](C)(Cc1ccccc1)NC(=O)[C@H](CO)NC(=O)CNC(=O)[C@@H](NC(=O)C(C)(C)NC(=O)[C@@H](N)Cc1c[nH]cn1)[C@@H](C)CC)[C@@H](C)O)C(C)C)C(C)C)C(=O)N[C@@H](C)C(=O)N[C@@H](CC(N)=O)C(=O)N[C@H](C(N)=O)[C@@H](C)O [Peptide 358] (H-H[Aib]IGS[αMeF]TSDVSK[αMeF]LDSQAAQDFVK([AEEA-AEEA-γGlu-C18 diacid])WIANT-NH2; N-terminus assumed) | 424.1 | 
CC(C)C[C@H](NC(=O)[C@H](Cc1c[nH]c2ccccc12)NC(=O)[C@H](CCC(N)=O)NC(=O)[C@@H](NC(=O)[C@H](Cc1ccccc1)NC(=O)[C@H](CC(=O)O)NC(=O)[C@H](CCCNC(=N)N)NC(=O)[C@H](C)NC(=O)[C@H](CCCNC(=N)N)NC(=O)[C@H](CCCCNC(=O)COCCOCCNC(=O)COCCOCCNC(=O)CC[C@H](NC(=O)CCCCCCCCCCCCCCCCC(=O)O)C(=O)O)NC(=O)[C@@H](NC(=O)[C@H](CCC(=O)O)NC(=O)[C@H](CC(C)C)NC(=O)[C@](C)(Cc1ccccc1)NC(=O)[C@H](CCCCN)NC(=O)[C@H](CO)NC(=O)[C@@H](NC(=O)[C@H](CC(=O)O)NC(=O)[C@H](CO)NC(=O)[C@@H](NC(=O)[C@H](Cc1ccccc1)NC(=O)[C@@H](NC(=O)CNC(=O)[C@H](CCC(N)=O)NC(=O)C(C)(C)NC(=O)[C@@H](N)Cc1c[nH]cn1)[C@@H](C)O)[C@@H](C)O)C(C)C)[C@@H](C)O)C(C)C)C(=O)N[C@@H](CC(C)C)C(=O)N[C@@H](CCC(=O)O)C(=O)NC(C)(C)C(=O)NCC(=O)O [Peptide 445] (H-H[Aib]QGTFTSDVSK[αMeF]LETK([AEEA-AEEA-γGlu-C18 diacid])RARDFVQWLLE[Aib]G-OH; N-terminus assumed) |  | % Relative Potency Ratio (Table 6): 41.0
HSQGS(αMePhe)TSDK((PEG)2-(PEG)2-γE-γE-Palmitoyl)10SK(Dip)LDS(ß-dimethylArg)AAQD(αMePhe)VE(Aib)LANT-amide [Peptide 394] |  | % Relative Potency Ratio (Table 9): 7.3
CC[C@H](C)[C@H](NC(=O)[C@H](Cc1c[nH]c2ccccc12)NC(=O)[C@H](CCCCNC(=O)COCCOCCNC(=O)COCCOCCNC(=O)CC[C@H](NC(=O)CC[C@H](NC(=O)CCCCCCCCCCCCCCCCCCC(=O)O)C(=O)O)C(=O)O)NC(=O)[C@@H](NC(=O)[C@H](Cc1ccccc1)NC(=O)[C@H](CC(=O)O)NC(=O)[C@H](CCC(N)=O)NC(=O)[C@H](C)NC(=O)[C@H](C)NC(=O)[C@H](CCCNC(=N)N)NC(=O)[C@H](CO)NC(=O)[C@H](CC(=O)O)NC(=O)[C@H](CC(C)C)NC(=O)[C@](C)(Cc1ccccc1)NC(=O)[C@H](CCCCN)NC(=O)[C@H](CO)NC(=O)[C@@H](NC(=O)[C@H](CC(=O)O)NC(=O)[C@H](CO)NC(=O)[C@@H](NC(=O)[C@](C)(Cc1ccccc1)NC(=O)[C@H](CO)NC(=O)CNC(=O)[C@H](Cc1c[nH]cn1)NC(=O)C(C)(C)NC(=O)[C@@H](N)Cc1c[nH]cn1)[C@@H](C)O)C(C)C)C(C)C)C(=O)N[C@@H](C)C(=O)N[C@@H](CC(N)=O)C(=O)N[C@H](C(N)=O)[C@@H](C)O [Peptide 377] (H-H[Aib]HGS[αMeF]TSDVSK[αMeF]LDSRAAQDFVK([AEEA-AEEA-γGlu-γGlu-C20 diacid])WIANT-NH2) | 2.5 | 
CC(C)C[C@H](NC(=O)[C@H](CCC(=O)O)NC(=O)[C@H](CC(C)C)NC(=O)[C@](C)(Cc1ccccc1)NC(=O)[C@H](CCCCN)NC(=O)[C@H](CO)NC(=O)[C@@H](NC(=O)[C@H](CC(=O)O)NC(=O)[C@H](CO)NC(=O)[C@@H](NC(=O)[C@H](Cc1ccccc1)NC(=O)[C@@H](NC(=O)CNC(=O)[C@H](CCC(N)=O)NC(=O)C(C)(C)NC(=O)[C@@H](N)Cc1c[nH]cn1)[C@@H](C)O)[C@@H](C)O)C(C)C)C(=O)N[C@@H](CCCCNC(=O)COCCOCCNC(=O)COCCOCCNC(=O)CC[C@H](NC(=O)CCCCCCCCCCCCCCCCC(=O)O)C(=O)O)C(=O)N[C@@H](CCCNC(=N)N)C(=O)N[C@@H](C)C(=O)N[C@@H](CCC(N)=O)C(=O)N[C@@H](CC(=O)O)C(=O)N[C@@H](Cc1ccccc1)C(=O)N[C@H](C(=O)N[C@@H](CCCNC(=N)N)C(=O)N[C@@H](Cc1c[nH]c2ccccc12)C(=O)N[C@@H](CC(C)C)C(=O)N[C@@H](CC(C)C)C(=O)NC(C)(C)C(=O)N[C@H](C(=O)N[C@@H](CCC(=O)O)C(=O)O)[C@@H](C)O)C(C)C [Peptide 169] (H-H[Aib]QGTFTSDVSK[αMeF]LELK([AEEA-AEEA-γGlu-C18 diacid])RAQDFVRWLL[Aib]TE-OH; N-terminus assumed) |  | % Relative Potency Ratio (Table 6): 13.2
